Laboratory results from patent US20090054376A1, “BENZOFURAN DERIVATIVES WITH THERAPEUTIC ACTIVITIES” (Pharmos Corporation, priority 2005, published 2009).

Experiments:
[1] = system: IL-10; experiment: Cytokine secretion into blood circulation in LPS injected mice, IL-10; format: in vivo, Balb/C female mice; details: 2 mg/kg i.v., LPS 3 mg/kg i.p., plasma 90 minutes after LPS
Procedure: (§1) Balb/C female mice (average body weight 20 g, Harlan, Israel) were injected i.v. at a volume dosage of 5 ml/kg with either vehicle or test compounds at a dose of 2 mg/kg. Each treatment group comprised at least 9 animals. Immediately after compound or control administration, the mice were injected i.p. with 3 mg/kg LPS (E. coli 055:B5, Calbiochem). Ninety minutes after LPS induction, blood samples were collected into heparanized test tubes. Plasma was separated by centrifugation (10,000 rpm for 5 minutes at RT) and stored at −20° C. until assayed. The level of the inflammatory mediator under study, IL-1β, IL-6, IL-10 or TNF-α, was assayed by ELISA techniques.
(§2) The technique used to quantify the amount of a given protein in a liquid sample, either tissue culture supernatant or body fluid, is based on Enzyme Linked ImmunoSorbent Assay (ELISA) methodology. Either commercially available or established in house, the assay is based on the capture of the protein of interest by specific antibodies bound to the bottom of an ELISA plate well. Unbound material is washed away, the captured protein is then exposed to a secondary antibody generally labeled with horseradish peroxidase (HRP) or alkaline phosphatase (ALP). Again the unbound material is washed away, and the samples are then incubated with the appropriate substrate yielding a colorimetric reaction. The reaction is stopped and reading is performed in a spectrophotometer at the appropriate wavelength. Samples are tested at least in duplicate and the appropriate standard curve, consisting of serial dilutions of the recombinant target protein, is incorporated on each plate. The concentration of the protein in the sample is calculated from the standard curve.
(§3) The results are expressed as percent inhibition of secretion, taking into account the maximal cytokine concentration in vehicle “treated” animals and the baseline level in naïve animals. […] Inhibition above 50% was considered highly significant.

[2] = system: IL-6; experiment: Cytokine secretion into blood circulation in LPS injected mice, IL-6; format: in vivo, Balb/C female mice; details: 2 mg/kg i.v., LPS 3 mg/kg i.p., plasma 90 minutes after LPS
Procedure: as §1, §2, §3

[3] = system: CB1 related cannabimimetic activity; experiment: Safety: body temperature, catalepsy, spontaneous locomotor activity, elevated plus maze, sensitivity to touch; format: in vivo, ICR male mice; details: 2 mg/kg i.v.
Outline: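 Male ICR mice (~25 g) dosed i.v. at 2 mg/kg, with HU-210 at 0.02 mg/kg i.v. as positive control; testing began 15 min post-dose. Measured were rectal temperature, open-field squares crossed over 3 min, catalepsy as beam step-down time (s), % time in open arms of elevated plus maze over 5 min, and blinded touch sensitivity (0–2 scale); mean±SEM.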

[4] = system: TNF-α; experiment: Cytokine secretion into blood circulation in LPS injected mice, TNF-α; format: in vivo, Balb/C female mice; details: 2 mg/kg i.v., LPS 3 mg/kg i.p., plasma 90 minutes after LPS
Procedure: as §1, §2, §3

[5] = system: visceral pain writhing responses; experiment: Visceral pain, acetic acid induced writhing responses; format: in vivo, Male ICR mice; details: for Percent Inhibition of Visceral Pain Writhing Responses / inhibition in vivo at 2 mg/kg: single dose 2 mg/kg i.v., compared to untreated group; for inhibition in vivo at 2 mg/kg: Mus musculus, iv, read-out: Percent Inhibition of Visceral Pain Writhing Responses
[6] = system: IL-1β; experiment: Cytokine secretion into blood circulation in LPS injected mice, IL-1β; format: in vivo, Balb/C female mice; details: 2 mg/kg i.v., LPS 3 mg/kg i.p., plasma 90 minutes after LPS
Procedure: as §1, §2, §3

SMILES: CCCCC(C)(C)c1cc(O)c2c(c1)OC1(C)CCCC21 (stereo not drawn) [Compound C5S-1, 6-(1,1-dimethylpentyl)-8a-methyl-2,3,3a,8a-tetrahydro-1H-8-oxa-cyclopenta[α]inden-4-ol]
- Inhibition of cytokine secretion into blood circulation, IL-10 [1]: 75%
- Inhibition of cytokine secretion into blood circulation, IL-6 [2]: 28%
- adverse cannabimimetic activities in any of the parameters monitored [3]: None
- Inhibition of cytokine secretion into blood circulation, TNF-α [4]: 77%
- Percent Inhibition of Visceral Pain Writhing Responses [5]: 41%
- Inhibition of cytokine secretion into blood circulation, IL-1β [6]: 41%

SMILES: CCCCCCC(C)(C)c1cc(O)c2c(c1)OC1(C)CCCC21 (stereo not drawn) [Compound C5S-2, 6-(1,1-dimethylheptyl)-8a-methyl-2,3,3a,8a-tetrahydro-1H-8-oxa-cyclo-penta[α]inden-4-ol]
- Inhibition of cytokine secretion into blood circulation, IL-10 [1]: 64%
- Inhibition of cytokine secretion into blood circulation, IL-6 [2]: NO (NO indicates that the compound tested did not significantly affect the level of cytokine in plasma of LPS injected mice and that its activity is comparable to vehicle, within ±20% from this control)
- adverse cannabimimetic activities in any of the parameters monitored [3]: None
- Inhibition of cytokine secretion into blood circulation, TNF-α [4]: 38%
- Percent Inhibition of Visceral Pain Writhing Responses [5]: 72%
- Inhibition of cytokine secretion into blood circulation, IL-1β [6]: 53%

SMILES: CCCCCCC(C)(C)c1cc(O)c2c3c(oc2c1)C(=O)CCC3(C)C [Compound C6M-9, 7-(1,1-Dimethylheptyl)-9-hydroxy-1,1-dimethyl-2,3-dihydro-1H-dibenzofuran-4-one]
- adverse cannabimimetic activities in any of the parameters monitored [3]: None
- inhibition in vivo at 2 mg/kg [5]: 38%

SMILES: CCCCCCC(C)(C)c1cc(O)c2c(c1)OC1C=CCCC21 (stereo not drawn) [Compound C6S-2, 3-(1,1-Dimethylheptyl)-5a,8,9,9a-tetrahydro-dibenzofuran-1-ol]
- Inhibition of cytokine secretion into blood circulation, IL-10 [1]: 68%
- Inhibition of cytokine secretion into blood circulation, IL-6 [2]: NO (NO indicates that the compound tested did not significantly affect the level of cytokine in plasma of LPS injected mice and that its activity is comparable to vehicle, within ±20% from this control)
- adverse cannabimimetic activities in any of the parameters monitored [3]: None
- Inhibition of cytokine secretion into blood circulation, TNF-α [4]: NO (NO indicates that the compound tested did not significantly affect the level of cytokine in plasma of LPS injected mice and that its activity is comparable to vehicle, within ±20% from this control)
- Inhibition of cytokine secretion into blood circulation, IL-1β [6]: 56%

SMILES: CCCCC(C)(C)c1cc(O)c2c(c1)OC1CCCCC21 (stereo not drawn) [Compound C6S-3, 3-(1,1-dimethylpentyl)-5a,6,7,8,9,9a-hexahydro-dibenzofuran-1-ol]
- Inhibition of cytokine secretion into blood circulation, IL-10 [1]: 79%
- Inhibition of cytokine secretion into blood circulation, IL-6 [2]: NO (NO indicates that the compound tested did not significantly affect the level of cytokine in plasma of LPS injected mice and that its activity is comparable to vehicle, within ±20% from this control)
- adverse cannabimimetic activities in any of the parameters monitored [3]: None
- decrease of number of squares crossed ([3]; non-significant): 13%
- number of squares crossed (spontaneous locomotor activity) ([3]; period of three minutes, vehicle 75.63±6.24): 65.80±7.04
- Inhibition of cytokine secretion into blood circulation, TNF-α [4]: 78%
- Inhibition of cytokine secretion into blood circulation, IL-1β [6]: NO (NO indicates that the compound tested did not significantly affect the level of cytokine in plasma of LPS injected mice and that its activity is comparable to vehicle, within ±20% from this control)

SMILES: CCCCC(C)(C)c1cc(O)c2c(c1)OC1C2CCC(C)(C)C1O (stereo not drawn) [Compound C6S-7, 3-(1,1-dimethylpentyl)-7,7-dimethyl-5a,6,7,8,9,9a-hexahydro-dibenzofuran-1,6-diol]
- adverse cannabimimetic activities in any of the parameters monitored [3]: None
- inhibition in vivo at 2 mg/kg [5]: 40%

SMILES: CCCCCCC(C)(C)c1cc(O)c2c(c1)OC1C(O)CCCCC21 (stereo not drawn) [Compound C7S-2, 2-(1,1-dimethylheptyl)-5,6,7,8,9,9a-hexahydro-4bH-10-oxa-benzo[α]azulen-4,9-diol]
- inhibition of writhing responses ([5]; 0.075 mg/kg i.v., compared to vehicle): 28%
- inhibition of writhing responses ([5]; 0.1 mg/kg i.v.): 74%
- inhibition of writhing responses ([5]; 0.25 mg/kg i.m.): 35%
- inhibition of writhing responses ([5]; 0.5 mg/kg i.m.): 90%
- inhibition of pain responses ([5]; 0.5 mg/kg i.v.): totally eradicated pain responses
- inhibition of pain response ([5]; 1 mg/kg i.m.): totally abrogated the pain response
- inhibition of writhing responses ([5]; 10 mg/kg p.o.): 58%
- inhibition of writhing responses ([5]; 20 mg/kg p.o.): 83%
- fold more potent than morphine ([5]; IC50 in visceral pain, i.v.): 12 fold
- inhibition in vivo at 2 mg/kg [5]: > 90%
- IC50 in visceral pain ([5]; i.m. administration, calculated): about 0.27 mg/kg
- IC50 in visceral pain ([5]; i.v., estimated or calculated from dose range): 0.09 mg/kg
- IC50 in visceral pain ([5]; p.o. administration, calculated): about 6.6 mg/kg
- IC50 in visceral pain ([5]; subcutaneously, estimated): about 1 mg/kg
